From article PMC12135063, “Pharmaceutical Analysis of Protein–Peptide Coformulations and the Influence of Polysorbates” (Molecular Pharmaceutics, 2025)
Where “and” joins values, the source holds several entries; their conditions need not be identical. Equal entries are not always repeated. Where two headings read alike, the source gives them in different places. *1 amine or outer side, *2 acyl side, *3 side chain or, on linkers, in order; H or OH if unused. Where a SMILES comes first, the peptide text is derived from it. Side-chain parts run from the residue outwards. [ ]: non-standard residue; d: D form. The star is where a group is joined. γGlu = O=C(O)[C@H](CCC(=O)[*:2])N[*:1]; αMeF = C[C@](N)(Cc1ccccc1)C(=O)O; αMeK = C[C@](N)(CCCCN)C(=O)O; Lauroyl = CCCCCCCCCCCC(=O)*; αMeS = C[C@](N)(CO)C(=O)O; AEEA = NCCOCCOCC(=O)O; Aib = CC(C)(N)C(=O)O

What was measured:
HSA [1] = target: T1, HSA (Homo sapiens, UniProt P02768); assay: ITC titration of MEDI7219 into HSA in the absence and presence of polysorbate; format: binding; settings: for Kd: read-out: dissociation constant; for αi (K B/A/K B): ratio of association constants with/without polysorbate
T1 construct: purchased Sigma-Aldrich UK; host or cells: human serum
Description: (§1) Lyophilized protein powders were rehydrated by adding buffer to the protein to achieve a concentration of 10 mg/mL, then stored at 5 °C for 72 h or until fully dissolved. Polysorbate concentrations chosen were 0.1× and 1× the critical micelle concentration (CMC) of each respective polysorbate. Due to the dilution of injection by the ITC, polysorbate formulations were formulated at 10 times the desired concentration. ITC experiments were performed using a Microcal PEAQ-ITC instrument from Malvern Panalytical. Prior to each experiment, the sample cell and syringe were cleaned using 20% Contrad 70 detergent, rinsed with ultrapure water, and dried using methanol. Titration experiments were conducted at 30 °C to ensure that the experimental temperature was above laboratory ambient temperature. As the Microcal PEAQ-ITC lacks a cooling unit, it was necessary to conduct experiments at a temperature that could be maintained consistently. The reference cell was filled with ultrapure water for all experiments. The 200 μL sample cell was filled with protein solution, and the 40 μL injection syringe was filled with polysorbate solution and equilibrated at 5 °C below the experimental temperature. The reference power was set to 41.86 μJ/s (10 μcal/s). Experiments comprised 14 injections of 2.5 μL at an injection speed of 0.5 μL/s. The time between injections was set long enough to allow the heat signals to return to the baseline before the next injection. The solution in the reaction cell was continuously stirred at a speed of 500 rpm. Experiments requiring the titration of peptide or surfactant into protein–surfactant or protein–peptide required the continuation of one experiment into the next, to maintain precise concentration ratios between experimental pathways. As a result, once an experiment had concluded, excess solution was withdrawn and the next titration was conducted into the resulting solution. A reference experiment of polysorbate injected into buffer solution was conducted under identical conditions and subtracted from each run that contained polysorbate in the injection syringe. For experiments that contained MEDI7219 in the injection syringe, a control experiment could not be subtracted in the same manner as the polysorbate experiments. This was suspected to be a consequence of limitations in the software and the interactions generating small binding heats, leading to a noisier thermogram. However, a fitted offset was used instead, which reduced noise and allowed a smooth heat integration. Data were analyzed using MicroCal PEAQ-ITC Analysis Software v1.41. The binding model was analyzed using the one set of binding sites software preset, resulting in the values of changes in the Gibbs free energy (ΔG), enthalpy (ΔH), and entropy in relation to temperature (−TΔS). Each experiment was repeated a minimum of three times to assess the reproducibility.

HSA [2] = target: T1, HSA; assay: DSC thermal stability of HSA with MEDI7219 and polysorbates; format: physicochemical; settings: DSC of 10 mg/mL HSA, no polysorbate, MEDI7219 10 mg/mL where ligand
Description: Lyophilized protein and MEDI7219 were rehydrated by adding buffer to achieve a concentration of 30 mg/mL, then stored at 5 °C for 72 h or until fully dissolved. Polysorbate solutions were prepared at 3 times higher than the desired concentration to account for dilution in the formulation after mixing with MEDI7219. Polysorbate concentrations in experiments were 0.1× and 1× each polysorbates respective CMC. Samples were produced by adding equal volumes of each component to provide the desired formulation. DSC experiments were conducted using a Microcal PEAQ-DSC instrument from Malvern Panalytical. Prior to each experiment, DSC cells were washed with 2% Decon 90 detergent and then rinsed with ultrapure water. The DSC capillary cell volume was 250 μL for both reference and sample cells; for each experiment, the reference cell contained buffer solution. […] A reference scan of the buffer solution was conducted under identical conditions and subtracted from each run. Data were analyzed using MicroCal PEAQ-DSC Analysis Software v1.64.

HSA [3] = target: T1, HSA; assay: ITC titration of polysorbate into HSA in the absence and presence of MEDI7219; format: binding; settings: for ΔG / ΔH / –TΔS / Kd: 30 °C; for Kd: [HSA] = 0.15 mM, read-out: dissociation constant; for αii (K A/B/K A): ratio of association constants with/without MEDI7219
Description: as §1, with “The reference power was set to 41.86 μJ/s (10 μcal/s).” left out, “For experiments that contained MEDI7219 in the injection syringe, a control experiment could not be subtracted in the same manner as the polysorbate experiments. This was suspected to be a consequence of limitations in the software and the interactions generating small binding heats, leading to a noisier thermogram. However, a fitted offset was used instead, which reduced noise and allowed a smooth heat integration.” left out

HSA [4] = target: T1, HSA; parameters: method as in not given; settings: native GLP-1, reported value; ref not given; cited from earlier work
[5] = MEDI7219 → HSA + RG T20 (1 × CMC), 30 °C
[6] = MEDI7219 → HSA + RG T80 (1 × CMC), 30 °C
[7] = MEDI7219 → HSA + SR T20 (1 × CMC), 30 °C
[8] = MEDI7219 → HSA + SR T80 (1 × CMC), 30 °C
[9] = MEDI7219 → HSA, no polysorbate, 30 °C
[10] = polysorbate (1 × CMC) → HSA + MEDI7219
[11] = polysorbate (1 × CMC) → HSA + MEDI7219, [MEDI7219] = 2.5 mM
[12] = polysorbate (1 × CMC) → HSA, MEDI7219 absent

Which ΔG (HSA [1]; [5]) does the source give for `CCCCCCCCCCCC(=O)N[C@@H](CCC(=O)NCCOCCOCC(=O)NCCOCCOCC(=O)NCCCC[C@H](NC(=O)[C@H](C)NC(=O)[C@@H](NC(=O)[C@](C)(Cc1ccccc1)NC(=O)[C@H](CCC(=O)O)NC(=O)[C@](C)(CCCCN)NC(=O)[C@H](C)NC(=O)[C@H](C)NC(=O)[C@H](CCC(=O)O)NC(=O)CNC(=O)[C@H](CCC(=O)O)NC(=O)[C@H](CC(C)C)NC(=O)[C@H](CCCCNC(=O)COCCOCCNC(=O)COCCOCCNC(=O)CC[C@H](NC(=O)CCCCCCCCCCC)C(=O)O)NC(=O)[C@H](CO)NC(=O)[C@](C)(CO)NC(=O)[C@@H](NC(=O)[C@H](CC(=O)O)NC(=O)[C@H](CO)NC(=O)[C@@H](NC(=O)[C@](C)(Cc1ccccc1)NC(=O)[C@H](CO)NC(=O)CNC(=O)[C@H](CCC(=O)O)NC(=O)C(C)(C)NC(=O)[C@@H](N)Cc1c[nH]cn1)[C@@H](C)O)C(C)C)[C@@H](C)CC)C(=O)N[C@H](C(=O)N[C@H](C(=O)N[C@@H](CCC(=O)O)C(=O)NCC(=O)NCC(N)=O)C(C)C)C(C)C)C(=O)O` [MEDI7219] (H-H[Aib]EGS[αMeF]TSDV[αMeS]SK([AEEA-AEEA-γGlu-Lauroyl])LEGEAA[αMeK]E[αMeF]IAK([AEEA-AEEA-γGlu-Lauroyl])VVEGG-NH2; N-terminus and C-terminus assumed) here?
Its ΔG is “–21.8 (±0.87) kJ mol^–1”.

What about the “–TΔS” value (HSA [1]; [5]) of the same compound?
Its value is “–15.3 (±1.28) kJ mol^–1”.

And the Kd (HSA [1]; [5])?
Its Kd is 176 µM.

What about the ΔH (HSA [1]; [6]) of the same compound?
The ΔH was 25.3 (±0.70) kJ mol^–1.

And the “–TΔS” value (HSA [1]; [6])?
The value was “–52.1 (±4.34) kJ mol^–1”.

What about the Kd (HSA [1]; [6]) of the same compound?
Its Kd is 24 µM.

What about the “αi (K B/A/K B)” value (HSA [1]; MEDI7219 → HSA + RG T80 (1 × CMC)) of the same compound?
The value was 1.68.

What about the ΔH (HSA [1]; [7]) of the same compound?
Its ΔH is 27.8 (±9.32) kJ mol^–1.

And the “–TΔS” value (HSA [1]; [7])?
The value was “–52.5 (±4.35) kJ mol^–1”.

And the Kd (HSA [1]; [7])?
The Kd was 55.6 µM.

What about the ΔH (HSA [1]; [8]) of the same compound?
The ΔH was 25.4 (±1.03) kJ mol^–1.

What about the “–TΔS” value (HSA [1]; [8]) of the same compound?
Its value is “–51.3 (±6.16) kJ mol^–1”.

What about the Kd (HSA [1]; [8]) of the same compound?
The Kd was 35.1 µM.

What about the “αi (K B/A/K B)” value (HSA [1]; MEDI7219 → HSA + SR T80 (1 × CMC)) of the same compound?
The value was 1.30.

And the ΔH (HSA [1]; [9])?
The ΔH was 35.4 (±8.19) kJ mol^–1.

What about the “–TΔS” value (HSA [1]; [9]) of the same compound?
The value was “–60.9 (±7.70) kJ mol^–1”.

And the Kd (HSA [1]; MEDI7219 → HSA, no polysorbate, 30 °C, [HSA] = 0.15 mM, [MEDI7219] = 2.5 mM, average across all experiments)?
Its Kd is 40.3 µM.

What about the association constant (HSA [1]; MEDI7219 → HSA, no polysorbate, 30 °C, example titration) of the same compound?
Its association constant is 2.4 × 10^4 M^–1.

What about the “decrease of dissociation constant of MEDI7219” value (HSA [1]; in the presence of RG T80 versus its absence) of the same compound?
The value was 2 fold.

And the “Tm 2” value (HSA [2])?
Its value is 74 °C and 74.0 (±0.1) °C.

What about the total area (HSA [2]; 20–105 °C at 60 °C/h) of the same compound?
Its total area is 806.3 (±5.8) kJ/mol.

Which results are given for “Polyoxyethylene (20) sorbitan monolaurate [RG T20]”?
ΔG (HSA [3]; [10]): –15.40 (±0.77) kJ mol^–1; ΔH (HSA [3]; [10]): –9.07 (±9.4 × 10^–7) kJ mol^–1; –TΔS (HSA [3]; [10]): –6.36 (±0.26) kJ mol^–1; Kd (HSA [3]; [11]): 2210 µM; αii (K A/B/K A) (HSA [3]; [10]): 0.47; ΔG (HSA [3]; [12]): –17.30 (±0.87) kJ mol^–1; ΔH (HSA [3]; [12]): –83.70 (±36.7) kJ mol^–1; –TΔS (HSA [3]; [12]): 66.40 (±2.74) kJ mol^–1; Kd (HSA [3]; [12]): 1030 µM

Which ΔG (HSA [3]; [10]) does the source give for “Polyoxyethylene (20) sorbitan monolaurate [SR T20]” here?
The ΔG was “–16.10 (±0.81) kJ mol^–1”.

What about the ΔH (HSA [3]; [10]) of the same compound?
The ΔH was “–4.19 (±0.62) kJ mol^–1”.

And the “–TΔS” value (HSA [3]; [10])?
Its value is “–11.90 (±0.50) kJ mol^–1”.

What about the Kd (HSA [3]; [11]) of the same compound?
The Kd was 1690 µM.

What about the “αii (K A/B/K A)” value (HSA [3]; [10]) of the same compound?
The value was 0.43.

What about the ΔG (HSA [3]; [12]) of the same compound?
Its ΔG is “–18.20 (±0.91) kJ mol^–1”.

And the ΔH (HSA [3]; [12])?
Its ΔH is “–43.10 (±6.15) kJ mol^–1”.

What about the “–TΔS” value (HSA [3]; [12]) of the same compound?
Its value is 24.90 (±1.03) kJ mol^–1.

And the Kd (HSA [3]; [12])?
Its Kd is 721 µM.

For “native GLP-1: native glucagon-like peptide-1, literature comparison”, which association constant (HSA [4]) is on record?
The association constant was 2.3 × 10^8 M^–1.

What does the source list for “polyoxyethylene (20) sorbitan monooleate [RG T80]”?
ΔG (HSA [3]; [10]): –16.00 (±0.80) kJ mol^–1; ΔH (HSA [3]; [10]): –8.75 (±4.46) kJ mol^–1; –TΔS (HSA [3]; [10]): –7.25 (±0.23) kJ mol^–1; Kd (HSA [3]; [11]): 1760 µM; αii (K A/B/K A) (HSA [3]; [10]): 0.57; ΔG (HSA [3]; [12]): –17.40 (±0.87) kJ mol^–1; ΔH (HSA [3]; [12]): –9.13 (±1.29) kJ mol^–1; –TΔS (HSA [3]; [12]): –8.26 (±0.34) kJ mol^–1; Kd (HSA [3]; [12]): 1010 µM

For “polyoxyethylene (20) sorbitan monooleate [SR T80]”, which ΔG (HSA [3]; [10]) is on record?
The ΔG was “–16.80 (±0.84) kJ mol^–1”.

What about the ΔH (HSA [3]; [10]) of the same compound?
Its ΔH is “–8.72 (±2.7 × 10^–5) kJ mol^–1”.

And the “–TΔS” value (HSA [3]; [10])?
Its value is “–8.09 (±0.33) kJ mol^–1”.

What about the Kd (HSA [3]; [11]) of the same compound?
The Kd was 1280 µM.

And the “αii (K A/B/K A)” value (HSA [3]; [10])?
Its value is 0.40.

What about the ΔG (HSA [3]; [12]) of the same compound?
Its ΔG is “–19.10 (±0.10) kJ mol^–1”.

What about the ΔH (HSA [3]; [12]) of the same compound?
Its ΔH is “–30.10 (±2.02) kJ mol^–1”.

What about the “–TΔS” value (HSA [3]; [12]) of the same compound?
The value was 11.00 (±0.45) kJ mol^–1.

And the Kd (HSA [3]; [12])?
Its Kd is 513 µM.
